{"source": "PubChem BioAssay AID212", "about": "(DTP/NCI, 2004)", "test_system": "BDF1 mice, colon carcinoma 38 sc, T/C %", "assay": "NCI In Vivo Anticancer Drug Screen. Data for tumor model Colon Carcinoma 38 (subcutaneous) in B6D2F1 (BDF1) mice", "method_in_brief": "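Mice with transplanted tumors are treated with compound or vehicle. Survival or tumor size is then measured in both groups. The ratio of treated to control gives the reported figure.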", "key": {"[1]": {"conditions": "endpoint: median tumor weight (est.), dose: 50.0 mg/kg/injection, schedule: Q07DX002 (ip), vehicle: saline, higher = larger tumour"}, "[2]": {"conditions": "endpoint: median tumor weight (est.), dose: 6.25 mg/kg/injection, schedule: Q07DX002 (ip), vehicle: Klucel (hydroxypropylcellulose) (HPC), higher = larger tumour"}, "[3]": {"conditions": "endpoint: median tumor weight (est.), dose: 12.5 mg/kg/injection, schedule: Q07DX002 (ip), vehicle: Klucel (hydroxypropylcellulose) (HPC), higher = larger tumour"}, "[4]": {"conditions": "endpoint: median tumor weight (est.), dose: 25.0 mg/kg/injection, schedule: Q07DX002 (ip), vehicle: Klucel (hydroxypropylcellulose) (HPC), higher = larger tumour"}}, "note": "“And” between values parts separate entries of the source, which are not always exact repeats. Equal entries are not always repeated. Results filed as inconclusive are left out.", "data": [{"smiles": "CC1CCC(NC(=O)N(CCCl)N=O)CC1", "note": "(stereo not drawn)", "values": [{"measurement": "T/C", "setting": "endpoint: median survival time, dose: 3.3 mg/kg/injection, schedule: Q01DX010 (oral), vehicle: saline with Tween-80, higher = longer survival", "value": "115 % of control"}, {"measurement": "T/C", "setting": "endpoint: median survival time, dose: 5.0 mg/kg/injection, schedule: Q04DX005 (ip), vehicle: other, higher = longer survival", "value": "93 % of control"}, {"measurement": "T/C", "setting": "endpoint: median survival time, dose: 5.5 mg/kg/injection, schedule: Q01DX010 (oral), vehicle: saline with Tween-80, higher = longer survival", "value": "99 % of control"}, {"measurement": "T/C", "setting": "endpoint: median survival time, dose: 9.0 mg/kg/injection, schedule: Q01DX010 (oral), vehicle: saline with Tween-80, higher = longer survival", "value": "100 % of control"}, {"measurement": "T/C", "setting": "endpoint: median survival time, dose: 10.0 mg/kg/injection, schedule: Q04DX005 (ip), vehicle: other, higher = longer survival", "value": "122 % of control"}, {"measurement": "T/C", "setting": "endpoint: median survival time, dose: 20.0 mg/kg/injection, schedule: Q04DX005 (ip), vehicle: other, higher = longer survival", "value": "153 % of control"}, {"measurement": "T/C", "setting": "endpoint: median tumor weight (est.), dose: 4.0 mg/kg/injection, schedule: Q07DX002 (ip), vehicle: Klucel (hydroxypropylcellulose) (HPC), higher = larger tumour", "value": "61 % of control"}, {"measurement": "T/C", "setting": "endpoint: median tumor weight (est.), dose: 8.0 mg/kg/injection, schedule: Q07DX002 (ip), vehicle: Klucel (hydroxypropylcellulose) (HPC), higher = larger tumour", "value": "53 % of control"}, {"measurement": "T/C", "setting": "endpoint: median tumor weight (est.), dose: 16.0 mg/kg/injection, schedule: Q07DX002 (ip), vehicle: Klucel (hydroxypropylcellulose) (HPC), higher = larger tumour", "value": "64 % of control"}, {"measurement": "T/C", "setting": "endpoint: median tumor weight (est.), dose: 32.0 mg/kg/injection, schedule: Q07DX002 (ip), vehicle: Klucel (hydroxypropylcellulose) (HPC), higher = larger tumour", "value": "18 % of control"}]}, {"smiles": "CC(=O)C(O)N1C(=O)C=CC1=O", "note": "(stereo not drawn)", "values": [{"measurement": "T/C", "setting": "endpoint: median tumor weight (est.), dose: 0.62 mg/kg/injection, schedule: Q07DX003 (ip), vehicle: saline, higher = larger tumour", "value": "109 % of control"}, {"measurement": "T/C", "setting": "endpoint: median tumor weight (est.), dose: 1.25 mg/kg/injection, schedule: Q07DX003 (ip), vehicle: saline, higher = larger tumour", "value": "76 % of control"}, {"measurement": "T/C", "setting": "endpoint: median tumor weight (est.), dose: 2.5 mg/kg/injection, schedule: Q07DX003 (ip), vehicle: saline, higher = larger tumour", "value": "111 % of control"}, {"measurement": "T/C", "setting": "endpoint: median tumor weight (est.), dose: 5.0 mg/kg/injection, schedule: Q07DX003 (ip), vehicle: saline, higher = larger tumour", "value": "108 % of control"}]}, {"smiles": "[CH3][Sn]([CH3])([Cl])[S]CCN", "values": [{"measurement": "T/C", "setting": "endpoint: median tumor weight (est.), dose: 12.5 mg/kg/injection, schedule: Q07DX002 (ip), vehicle: saline, higher = larger tumour", "value": "71 % of control"}, {"measurement": "T/C", "setting": "endpoint: median tumor weight (est.), dose: 25.0 mg/kg/injection, schedule: Q07DX002 (ip), vehicle: saline, higher = larger tumour", "value": "47 % of control"}, {"measurement": "T/C", "setting": "[1]", "value": "90 % of control"}]}, {"smiles": "COc1ccc(OC)c(Cc2cnc3nc(N)nc(N)c3c2C)c1", "values": [{"measurement": "T/C", "setting": "endpoint: median tumor weight (est.), dose: 12.5 mg/kg/injection, schedule: Q07DX002 (ip), vehicle: water, higher = larger tumour", "value": "62 % of control"}, {"measurement": "T/C", "setting": "endpoint: median tumor weight (est.), dose: 25.0 mg/kg/injection, schedule: Q07DX002 (ip), vehicle: water, higher = larger tumour", "value": "96 % of control"}, {"measurement": "T/C", "setting": "endpoint: median tumor weight (est.), dose: 50.0 mg/kg/injection, schedule: Q07DX002 (ip), vehicle: water, higher = larger tumour", "value": "67 % of control and 82 % of control"}, {"measurement": "T/C", "setting": "endpoint: median tumor weight (est.), dose: 100.0 mg/kg/injection, schedule: Q07DX002 (ip), vehicle: water, higher = larger tumour", "value": "93 % of control and 100 % of control"}, {"measurement": "T/C", "setting": "endpoint: median tumor weight (est.), dose: 200.0 mg/kg/injection, schedule: Q07DX002 (ip), vehicle: water, higher = larger tumour", "value": "32 % of control"}]}, {"smiles": "OC1CCCC2CCCNC12", "note": "(stereo not drawn)", "values": [{"measurement": "T/C", "setting": "[2]", "value": "102 % of control"}, {"measurement": "T/C", "setting": "[3]", "value": "100 % of control"}, {"measurement": "T/C", "setting": "[4]", "value": "85 % of control"}, {"measurement": "T/C", "setting": "endpoint: median tumor weight (est.), dose: 50.0 mg/kg/injection, schedule: Q07DX002 (ip), vehicle: Klucel (hydroxypropylcellulose) (HPC), higher = larger tumour", "value": "100 % of control"}, {"measurement": "T/C", "setting": "endpoint: median tumor weight (est.), dose: 100.0 mg/kg/injection, schedule: Q07DX002 (ip), vehicle: Klucel (hydroxypropylcellulose) (HPC), higher = larger tumour", "value": "109 % of control"}]}, {"smiles": "C=CS(C=C)=NS(=O)(=O)c1ccc(C)cc1", "values": [{"measurement": "T/C", "setting": "endpoint: median tumor weight (est.), dose: 1.56 mg/kg/injection, schedule: Q07DX002 (ip), vehicle: Klucel (hydroxypropylcellulose) (HPC), higher = larger tumour", "value": "110 % of control"}, {"measurement": "T/C", "setting": "[2]", "value": "110 % of control"}, {"measurement": "T/C", "setting": "[3]", "value": "111 % of control"}, {"measurement": "T/C", "setting": "[4]", "value": "94 % of control"}]}, {"smiles": "COc1cc2cc(c1Cl)N(C)C(=O)CC(OC(=O)CC(C)C)C1(C)OC1C(C)C1CC(O)(NC(=O)O1)C(OC)/C=C/C=C(C)C2", "note": "(stereo not drawn)", "values": [{"measurement": "T/C", "setting": "endpoint: median tumor weight (est.), dose: 6.2 micrograms/kg/injection, schedule: Q07DX003 (ip), vehicle: saline + alcohol, higher = larger tumour", "value": "121 % of control"}, {"measurement": "T/C", "setting": "endpoint: median tumor weight (est.), dose: 25.0 micrograms/kg/injection, schedule: Q07DX003 (ip), vehicle: saline + alcohol, higher = larger tumour", "value": "75 % of control"}]}, {"smiles": "O=c1[nH]c(=O)n(C2CC(O)C(CO)O2)cc1I", "note": "(stereo not drawn)", "values": [{"measurement": "T/C", "setting": "endpoint: median tumor weight (est.), dose: 50.0 mg/kg/injection, schedule: Q07DX002 (ip), vehicle: saline with Tween-80, higher = larger tumour", "value": "79 % of control"}, {"measurement": "T/C", "setting": "[1]", "value": "44 % of control"}, {"measurement": "T/C", "setting": "endpoint: median tumor weight (est.), dose: 100.0 mg/kg/injection, schedule: Q07DX002 (ip), vehicle: saline with Tween-80, higher = larger tumour", "value": "69 % of control"}, {"measurement": "T/C", "setting": "endpoint: median tumor weight (est.), dose: 100.0 mg/kg/injection, schedule: Q07DX002 (ip), vehicle: saline, higher = larger tumour", "value": "50 % of control"}, {"measurement": "T/C", "setting": "endpoint: median tumor weight (est.), dose: 200.0 mg/kg/injection, schedule: Q07DX002 (ip), vehicle: saline with Tween-80, higher = larger tumour", "value": "102 % of control"}, {"measurement": "T/C", "setting": "endpoint: median tumor weight (est.), dose: 200.0 mg/kg/injection, schedule: Q07DX002 (ip), vehicle: saline, higher = larger tumour", "value": "44 % of control"}, {"measurement": "T/C", "setting": "endpoint: median tumor weight (est.), dose: 200.0 mg/kg/injection, schedule: Q07DX002 (ip), vehicle: suspension in saline, higher = larger tumour", "value": "57 % of control"}, {"measurement": "T/C", "setting": "endpoint: median tumor weight (est.), dose: 400.0 mg/kg/injection, schedule: Q07DX002 (ip), vehicle: saline with Tween-80, higher = larger tumour", "value": "105 % of control"}, {"measurement": "T/C", "setting": "endpoint: median tumor weight (est.), dose: 400.0 mg/kg/injection, schedule: Q07DX002 (ip), vehicle: saline, higher = larger tumour", "value": "44 % of control"}, {"measurement": "T/C", "setting": "endpoint: median tumor weight (est.), dose: 400.0 mg/kg/injection, schedule: Q07DX002 (ip), vehicle: suspension in saline, higher = larger tumour", "value": "102 % of control"}, {"measurement": "T/C", "setting": "endpoint: median tumor weight (est.), dose: 800.0 mg/kg/injection, schedule: Q07DX002 (ip), vehicle: saline with Tween-80, higher = larger tumour", "value": "75 % of control"}, {"measurement": "T/C", "setting": "endpoint: median tumor weight (est.), dose: 800.0 mg/kg/injection, schedule: Q07DX002 (ip), vehicle: saline, higher = larger tumour", "value": "18 % of control"}, {"measurement": "T/C", "setting": "endpoint: median tumor weight (est.), dose: 800.0 mg/kg/injection, schedule: Q07DX002 (ip), vehicle: suspension in saline, higher = larger tumour", "value": "59 % of control"}, {"measurement": "T/C", "setting": "endpoint: median tumor weight (est.), dose: 1600.0 mg/kg/injection, schedule: Q07DX002 (ip), vehicle: saline with Tween-80, higher = larger tumour", "value": "48 % of control"}, {"measurement": "T/C", "setting": "endpoint: median tumor weight (est.), dose: 1600.0 mg/kg/injection, schedule: Q07DX002 (ip), vehicle: saline, higher = larger tumour", "value": "1 % of control"}]}]}
